Data on 3 molecules can be found in ChEMBL document CHEMBL5291721, “A preclinical secondary pharmacology resource illuminates target-adverse drug reaction associations of marketed drugs” (Nat Commun, 2023).

In one assay the target is T1, Substance-K receptor (Homo sapiens, UniProt P21452).
T1 sequence (P21452 whole entry): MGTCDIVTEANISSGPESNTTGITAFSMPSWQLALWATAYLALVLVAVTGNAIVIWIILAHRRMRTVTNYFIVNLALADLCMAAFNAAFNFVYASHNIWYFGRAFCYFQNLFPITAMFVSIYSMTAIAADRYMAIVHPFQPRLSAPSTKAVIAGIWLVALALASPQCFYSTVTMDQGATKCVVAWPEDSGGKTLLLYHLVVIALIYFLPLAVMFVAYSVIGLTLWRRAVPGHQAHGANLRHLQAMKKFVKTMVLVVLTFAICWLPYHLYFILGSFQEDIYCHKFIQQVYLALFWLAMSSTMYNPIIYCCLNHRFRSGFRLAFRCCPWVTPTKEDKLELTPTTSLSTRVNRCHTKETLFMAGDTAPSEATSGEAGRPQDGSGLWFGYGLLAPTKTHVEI

A further assay concerns the target T2, Androgen receptor (Rattus norvegicus, UniProt P15207).
T2 sequence (P15207 whole entry): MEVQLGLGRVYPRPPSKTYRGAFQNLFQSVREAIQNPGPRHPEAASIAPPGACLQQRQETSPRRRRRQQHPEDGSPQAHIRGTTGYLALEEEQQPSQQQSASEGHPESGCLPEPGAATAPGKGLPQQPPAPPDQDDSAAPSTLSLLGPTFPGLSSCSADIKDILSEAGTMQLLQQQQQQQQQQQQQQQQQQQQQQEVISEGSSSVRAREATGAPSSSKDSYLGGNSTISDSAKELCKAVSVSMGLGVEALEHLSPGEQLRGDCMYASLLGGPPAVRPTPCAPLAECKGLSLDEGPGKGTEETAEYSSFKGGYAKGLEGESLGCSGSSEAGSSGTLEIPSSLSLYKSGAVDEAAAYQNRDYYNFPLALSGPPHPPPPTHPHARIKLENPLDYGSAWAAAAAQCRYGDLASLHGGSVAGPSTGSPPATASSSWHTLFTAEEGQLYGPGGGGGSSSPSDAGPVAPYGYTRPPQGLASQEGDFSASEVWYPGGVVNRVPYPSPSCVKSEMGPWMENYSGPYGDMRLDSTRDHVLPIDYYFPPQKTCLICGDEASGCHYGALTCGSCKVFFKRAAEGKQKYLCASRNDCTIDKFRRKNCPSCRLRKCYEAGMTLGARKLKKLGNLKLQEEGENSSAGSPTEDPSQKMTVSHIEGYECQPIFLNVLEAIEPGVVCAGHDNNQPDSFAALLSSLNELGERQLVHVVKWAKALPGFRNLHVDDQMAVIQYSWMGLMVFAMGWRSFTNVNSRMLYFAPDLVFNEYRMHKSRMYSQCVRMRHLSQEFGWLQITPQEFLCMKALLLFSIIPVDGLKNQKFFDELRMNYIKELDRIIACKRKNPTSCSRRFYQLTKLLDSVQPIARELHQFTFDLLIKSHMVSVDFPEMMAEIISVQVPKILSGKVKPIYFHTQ
The class given is functional.

The target in assay [1] is T3, Bile acid receptor (Homo sapiens, UniProt Q96RI1).
T3 sequence (Q96RI1 whole entry): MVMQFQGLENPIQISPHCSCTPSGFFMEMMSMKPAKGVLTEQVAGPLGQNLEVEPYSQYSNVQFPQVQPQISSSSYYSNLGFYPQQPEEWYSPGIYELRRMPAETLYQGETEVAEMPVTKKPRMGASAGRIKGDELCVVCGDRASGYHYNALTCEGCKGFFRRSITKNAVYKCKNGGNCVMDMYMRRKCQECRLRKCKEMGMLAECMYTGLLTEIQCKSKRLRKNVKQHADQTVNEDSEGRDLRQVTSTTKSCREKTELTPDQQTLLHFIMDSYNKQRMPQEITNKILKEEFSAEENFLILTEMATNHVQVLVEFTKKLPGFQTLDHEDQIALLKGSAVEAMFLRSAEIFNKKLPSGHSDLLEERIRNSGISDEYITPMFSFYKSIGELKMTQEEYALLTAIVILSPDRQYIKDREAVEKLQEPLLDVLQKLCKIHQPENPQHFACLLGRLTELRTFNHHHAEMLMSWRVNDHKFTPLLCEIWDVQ
In kind it is functional.

Assay [2] addresses T3, Bile acid receptor. In kind it is functional. The source holds these as a separate data set.
The target of assay [3] is T4, Retinoic acid receptor alpha (Homo sapiens, UniProt P10276).
T4 sequence (P10276 whole entry): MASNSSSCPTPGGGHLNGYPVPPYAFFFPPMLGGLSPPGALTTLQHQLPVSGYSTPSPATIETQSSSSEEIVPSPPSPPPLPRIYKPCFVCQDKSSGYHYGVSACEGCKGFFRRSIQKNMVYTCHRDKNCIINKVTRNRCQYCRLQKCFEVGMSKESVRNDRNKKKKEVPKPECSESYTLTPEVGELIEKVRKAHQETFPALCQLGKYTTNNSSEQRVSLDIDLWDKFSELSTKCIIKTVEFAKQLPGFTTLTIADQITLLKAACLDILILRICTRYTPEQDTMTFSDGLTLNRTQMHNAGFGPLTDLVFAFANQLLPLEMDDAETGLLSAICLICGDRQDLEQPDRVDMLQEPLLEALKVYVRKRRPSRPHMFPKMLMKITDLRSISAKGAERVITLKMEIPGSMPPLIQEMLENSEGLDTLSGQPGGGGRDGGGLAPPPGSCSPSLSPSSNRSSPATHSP
In kind it is functional, cell-based.

Assay [4] deals with T5, Retinoic acid receptor gamma (Homo sapiens, UniProt P13631).
T5 sequence (P13631 whole entry): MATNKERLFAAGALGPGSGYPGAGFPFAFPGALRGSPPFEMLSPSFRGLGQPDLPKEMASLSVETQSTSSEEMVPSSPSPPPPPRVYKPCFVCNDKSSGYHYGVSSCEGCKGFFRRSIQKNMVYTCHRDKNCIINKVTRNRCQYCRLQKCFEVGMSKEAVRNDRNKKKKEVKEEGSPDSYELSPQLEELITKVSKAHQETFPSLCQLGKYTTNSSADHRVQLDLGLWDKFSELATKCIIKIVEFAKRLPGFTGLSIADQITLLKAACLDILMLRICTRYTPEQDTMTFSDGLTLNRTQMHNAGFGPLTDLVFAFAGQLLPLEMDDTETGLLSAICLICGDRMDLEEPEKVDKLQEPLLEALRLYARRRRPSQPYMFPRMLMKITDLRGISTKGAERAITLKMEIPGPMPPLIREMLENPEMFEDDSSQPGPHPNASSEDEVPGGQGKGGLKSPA
In kind it is functional, cell-based.

In assay [5] the target is T5, Retinoic acid receptor gamma. The class given is functional, cell-based. This is another data set of the same source.
Also: assay procedure not described here.

A word on the AC50: it is the concentration giving half of the maximal activity seen. A high value points to activity only at high concentration. On Substance-K receptor, `CCOC(=O)[C@H](CCc1ccccc1)N[C@@H](C)C(=O)N1Cc2ccccc2C[C@H]1C(=O)O` registered a half-maximal activity concentration (AC50) greater than 10 µM.

Consider `CCN(CC)CCn1c(=O)c(Cc2ccc(OC)cc2)nc2ccccc21` [CAROVERINE], for which the concentration at half-maximal activity (AC50) on Androgen receptor is greater than 30 µM.

For `CC(C)/N=c1\cc2n(-c3ccc(Cl)cc3)c3ccccc3nc-2cc1Nc1ccc(Cl)cc1` [CLOFAZIMINE], the concentration at half-maximal activity (AC50) (on Bile acid receptor [1]; on Bile acid receptor [2]; in assay [3]; in assay [4]; in assay [5]) was greater than 30 µM each time.
